Measured values published in the NIST ThermoML archive (doi:10.1016/j.jct.2015.10.009).
Numbers after ± are expanded uncertainties.

What was measured:
[1] = Liquid; for vapor or sublimation pressure: Closed cell (Static) method
[2] = refractive index (Na D-line) (dimensionless); settings: 298.15 K; 101.33 kPa; Liquid; Standard Abbe refractometry

O=C=O [carbon dioxide]
vapor or sublimation pressure ([1]; 272.78 K): 3476 ± 11 kPa | vapor or sublimation pressure ([1]; 277.83 K): 3958 ± 12 kPa | vapor or sublimation pressure ([1]; 282.87 K): 4487 ± 13 kPa | vapor or sublimation pressure ([1]; 287.92 K): 5069 ± 13 kPa | vapor or sublimation pressure ([1]; 292.95 K): 5705 ± 14 kPa | vapor or sublimation pressure ([1]; 297.99 K): 6404 ± 16 kPa | vapor or sublimation pressure ([1]; 303.03 K): 7176 ± 17 kPa

CCCCCC [hexane]
refractive index [2]: 1.3724 ± 0.0004 | mass density ([1]; 298.15 K, 101.33 kPa, Vibrating tube method): 655.241 ± 0.26 kg/m3

FC(F)F [trifluoromethane]
vapor or sublimation pressure ([1]; 267.81 K): 2176 ± 9 kPa | vapor or sublimation pressure ([1]; 272.86 K): 2497 ± 9 kPa | vapor or sublimation pressure ([1]; 277.9 K): 2881 ± 10 kPa | vapor or sublimation pressure ([1]; 282.96 K): 3269 ± 10 kPa | vapor or sublimation pressure ([1]; 287.99 K): 3707 ± 11 kPa | vapor or sublimation pressure ([1]; 292.02 K): 4084 ± 11 kPa | vapor or sublimation pressure ([1]; 293.04 K): 4180 ± 12 kPa | vapor or sublimation pressure ([1]; 297.07 K): 4605 ± 12 kPa
